Assay results: the supplement of paper PMC10307832

Assays:
Test in all cases: relative viability (nuclei count vs DMSO), 5 days (fraction); higher = more cells survive
[1] = compound: Cc1ccccc1C(C(=O)NC1CCCCC1)N(C(=O)Cn1ccnc1C)c1cccc(F)c1 [IDH-C35] + COc1cccc2cc(-c3nc([C@H]4CC[C@H](C(=O)O)CC4)n4ncnc(N)c34)[nH]c12 [OSI-027] (partner 0.5 µM)
How it was run: (§1)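 Lung cancer cell lines were seeded in 1536-well plates and dosed by pin tool the next day, with either a single drug or a fixed anchor-drug dose combined with five library-drug doses (not always all listed) spaced in √10 steps. Five days later, one step fixed the cells and stained their nuclei (final 0.05% Triton X-100, 1% formaldehyde, 1 ug/ml Hoechst), and nuclei were counted on 4× images. Relative viability is the nuclei count in treated wells divided by the count in vehicle wells, and each value is the median of duplicate plates.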

[2] = compound: CC1=C(C(=NN1)C)CC2=C(C3=C(S2)N(C(=O)N(C3=O)C)CC(C)C)C(=O)N4C[C@@H](CO4)O + COc1cc2c(Oc3ccc(NC(=O)C4(C(=O)Nc5ccc(F)cc5)CC4)cc3F)ccnc2cc1OCCCN1CCOCC1 [Foretinib] (partner 0.25 µM)
How it was run: as §1

[3] = compound: Cc1ccccc1C(C(=O)NC1CCCCC1)N(C(=O)Cn1ccnc1C)c1cccc(F)c1 [IDH-C35] + Nc1nc2[nH]cc(CCc3ccc(C(=O)N[C@@H](CCC(=O)O)C(=O)O)cc3)c2c(=O)[nH]1 [Pemetrexed] (partner 0.2 µM)
How it was run: as §1

[4] = compound: Cc1ccccc1C(C(=O)NC1CCCCC1)N(C(=O)Cn1ccnc1C)c1cccc(F)c1 [IDH-C35] + CS(=O)(=O)CCNCc1ccc(-c2ccc3ncnc(Nc4ccc(OCc5cccc(F)c5)c(Cl)c4)c3c2)o1 [Lapatinib] (partner 2 µM)
How it was run: as §1

Row | Cell Line | relative viability ([1]; first compound 0.08 µM) | relative viability ([1]; first compound 0.253 µM) | relative viability ([1]; first compound 0.8 µM) | relative viability ([1]; first compound 2.53 µM) | relative viability ([1]; first compound 8 µM) | relative viability ([2]; first compound 0.0025 µM) | relative viability ([2]; first compound 0.007906 µM) | relative viability ([2]; first compound 0.025 µM) | relative viability ([2]; first compound 0.07906 µM) | relative viability ([2]; first compound 0.25 µM) | relative viability ([3]; first compound 0.08 µM) | relative viability ([3]; first compound 0.253 µM) | relative viability ([3]; first compound 0.8 µM) | relative viability ([3]; first compound 2.53 µM) | relative viability ([3]; first compound 8 µM) | relative viability ([4]; first compound 0.08 µM) | relative viability ([4]; first compound 0.253 µM) | relative viability ([4]; first compound 0.8 µM) | relative viability ([4]; first compound 2.53 µM) | relative viability ([4]; first compound 8 µM)
1 | RERF-LC-KJ | 0.562 | 0.631 | 0.643 | 0.614 | 0.597 | 0.866 | 0.942 | 0.909 | 0.886 | 0.935 | 0.431 | 0.492 | 0.478 | 0.481 | 0.523 | 0.939 | 0.856 | 0.91 | 0.802 | 0.773
2 | SK-LU-1 | 0.377 | 0.336 | 0.347 | 0.357 | 0.326 | 0.659 | 0.556 | 0.527 | 0.492 | 0.548 | 1.06 | 0.983 | 1.03 | 1.05 | 0.887 | 0.918 | 0.856 | 0.871 | 0.976 | 0.82
3 | SK-MES-1 | 0.634 | 0.598 | 0.604 | 0.597 | 0.508 | 0.901 | 1.06 | 1.02 | 0.954 | 0.991 | 0.91 | 0.988 | 0.925 | 0.861 | 0.874 | 0.435 | 0.49 | 0.446 | 0.481 | 0.413
4 | SW 1573 | 0.779 | 0.798 | 0.648 | 0.763 | 0.753 | 0.958 | 1.05 | 0.86 | 0.74 | 0.964 | 0.692 | 0.889 | 0.879 | 0.789 | 0.763 | 1.2 | 1.26 | 1.09 | 1.05 | 1.09
